From PubChem BioAssay (NCI)
Where “and” joins values, the source holds several entries; their conditions need not be identical. Equal entries are not always repeated.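 How tested: cells in 96-well plates exposed to compound for 48 hours at five concentrations. GI50 marks 50% less growth. TGI marks complete inhibition of growth.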

Experiments:
Assay in all cases: NCI anticancer screen, dose series, 48 h
DU-145 prostate = test system: DU-145 prostate
HS 578T breast = test system: HS 578T breast
MCF7 breast = test system: MCF7 breast
MDA-MB-231 breast = test system: MDA-MB-231 breast
MDA-MB-435 = test system: MDA-MB-435
MDA-N = test system: MDA-N
DMS 273 small cell lung = test system: DMS 273 small cell lung
DMS 114 small cell lung = test system: DMS 114 small cell lung

COc1ccc(C(=O)/C=C/c2ccc(O)c(O)c2F)c(OC)c1
GI50 (DU-145 prostate): 5.38 µM
TGI (DU-145 prostate): 16.2 µM and 19 µM
GI50 (HS 578T breast): 7.34 µM
TGI (HS 578T breast): 75 µM and > 100 µM
GI50 (MCF7 breast): 0.334 µM
TGI (MCF7 breast): 9.83 µM and 13.1 µM
TGI (MDA-MB-231 breast): 38.1 µM and 42.1 µM
GI50 (MDA-MB-435): 2.51 µM
TGI (MDA-MB-435): 75 µM and 44.1 µM
GI50 (MDA-N): 2.38 µM
TGI (MDA-N): 27.2 µM and 25.8 µM

COc1cccc(-c2nn(-c3ccccc3)cc2-c2ccnc(NCCNS(=O)(=O)c3ccc(Cl)cc3)c2)c1
GI50 (DU-145 prostate): 7.55 µM
TGI (DU-145 prostate): > 100 µM
GI50 (HS 578T breast): 5.73 µM
TGI (HS 578T breast): > 100 µM
GI50 (MCF7 breast): 2.98 µM
TGI (MCF7 breast): 18.4 µM
GI50 (MDA-MB-231 breast): 3.55 µM
TGI (MDA-MB-231 breast): > 100 µM
GI50 (MDA-MB-435): 3.81 µM
TGI (MDA-MB-435): > 100 µM

O=C1/C(=C/c2cccc([N+](=O)[O-])c2)COc2ccc(O)c(O)c21
GI50 (DU-145 prostate): 1.9 µM
TGI (DU-145 prostate): 4.39 µM
GI50 (HS 578T breast): 2.04 µM
TGI (HS 578T breast): 7.47 µM
GI50 (MCF7 breast): 0.665 µM
TGI (MCF7 breast): 2.96 µM
GI50 (MDA-MB-231 breast): 1.47 µM
TGI (MDA-MB-231 breast): 2.98 µM
GI50 (MDA-MB-435): 1.69 µM
TGI (MDA-MB-435): 3.77 µM

COc1cc(/C=C(/C)[N+](=O)[O-])ccc1O
GI50 (DU-145 prostate): 2.01 µM and 1.59 µM
TGI (DU-145 prostate): 4.11 µM and 3.26 µM
GI50 (HS 578T breast): 4.67 µM
TGI (HS 578T breast): > 28.4 µM
GI50 (MCF7 breast): 1.44 µM and 1.37 µM
TGI (MCF7 breast): 3.39 µM and 2.9 µM
GI50 (MDA-MB-231 breast): 2.14 µM and 2.64 µM
TGI (MDA-MB-231 breast): 5.5 µM and 7.44 µM
GI50 (MDA-MB-435): 2.16 µM and 1.64 µM
TGI (MDA-MB-435): 6.33 µM and 4.4 µM

CC(C(=O)N1C(=O)N(C(=O)C(C)C(O)c2ccccc2)C(c2ccccc2)C1c1ccccc1)C(O)c1ccccc1 (stereo not drawn)
TGI (DU-145 prostate): > 100 µM
TGI (HS 578T breast): 95.1 µM
TGI (MCF7 breast): > 100 µM
TGI (MDA-MB-231 breast): 77.9 µM
TGI (MDA-MB-435): 61.2 µM

O=C(Nc1ccc(-c2nc3cc4ccccc4cc3[nH]2)cc1)c1cccc(Br)c1
GI50 (DU-145 prostate): 3.03 µM
TGI (DU-145 prostate): 19.1 µM
GI50 (HS 578T breast): 14.3 µM
TGI (HS 578T breast): 46.2 µM
GI50 (MCF7 breast): 1.97 µM
TGI (MCF7 breast): 10.4 µM
GI50 (MDA-MB-231 breast): 3.11 µM
TGI (MDA-MB-231 breast): 19.3 µM
GI50 (MDA-MB-435): 4.72 µM
TGI (MDA-MB-435): 20.4 µM

Cc1cc2c(c3c1c1ccccc1n3C)C(=O)C=CC2=O
TGI (DMS 273 small cell lung): 55.9 µM
TGI (DU-145 prostate): > 100 µM
TGI (HS 578T breast): 80.5 µM
TGI (MCF7 breast): 25.8 µM
TGI (MDA-MB-231 breast): 75 µM
TGI (MDA-MB-435): > 100 µM
TGI (MDA-N): 62.5 µM

CCN(CC)CCn1c(C(C)(C)C)nc2ccccc21
TGI (DU-145 prostate): > 100 µM
TGI (MCF7 breast): > 100 µM
TGI (MDA-N): > 100 µM

Oc1ccc(C(c2ccccc2)(c2ccccc2)c2ccccc2)cc1
GI50 (DU-145 prostate): 13.3 µM
TGI (DU-145 prostate): 27.8 µM
GI50 (HS 578T breast): 17.6 µM
TGI (HS 578T breast): 65.1 µM
GI50 (MCF7 breast): 10.3 µM
TGI (MCF7 breast): 34.3 µM
GI50 (MDA-MB-231 breast): 16.7 µM
TGI (MDA-MB-231 breast): 34.2 µM
GI50 (MDA-MB-435): 19.9 µM
TGI (MDA-MB-435): 38.3 µM

O=C(/C=C/c1ccco1)c1ccc(Nc2nc(Nc3ccc(F)cc3)nc(Nc3ccc(Cl)cc3)n2)cc1
GI50 (DU-145 prostate): 30.9 µM
TGI (DU-145 prostate): > 74.7 µM
GI50 (HS 578T breast): 26 µM
TGI (HS 578T breast): > 91.4 µM
GI50 (MCF7 breast): 1.84 µM
TGI (MCF7 breast): 34.1 µM
GI50 (MDA-MB-231 breast): 16.2 µM
TGI (MDA-MB-231 breast): 61.9 µM
GI50 (MDA-MB-435): 30.5 µM
TGI (MDA-MB-435): > 59.6 µM

COc1ccc(C(=O)Cn2c(C(=O)c3ccc(Cl)cc3)nc3ccccc32)cc1
GI50 (DU-145 prostate): > 100 µM
TGI (DU-145 prostate): > 100 µM
GI50 (HS 578T breast): 3.29 µM
TGI (HS 578T breast): > 23.7 µM
GI50 (MCF7 breast): 3 µM
TGI (MCF7 breast): > 100 µM
GI50 (MDA-MB-231 breast): 24.8 µM
TGI (MDA-MB-231 breast): > 100 µM
GI50 (MDA-MB-435): 2.23 µM
TGI (MDA-MB-435): > 23.2 µM

Oc1ccc2ccccc2c1C=NCCCN=Cc1c(O)ccc2ccccc12
GI50 (DU-145 prostate): 35.3 µM
TGI (DU-145 prostate): > 100 µM
GI50 (HS 578T breast): 8.05 µM
TGI (HS 578T breast): 36.7 µM
GI50 (MCF7 breast): 17.1 µM
TGI (MCF7 breast): > 100 µM
GI50 (MDA-MB-231 breast): 11.6 µM
TGI (MDA-MB-231 breast): 30.2 µM
GI50 (MDA-MB-435): 10.8 µM
TGI (MDA-MB-435): 71.2 µM

O=C1c2ccccc2-c2c1c1ccccc1c(=O)n2CCCNCCCn1c2c(c3ccccc3c1=O)C(=O)c1ccccc1-2
GI50 (DU-145 prostate): 1.49 µM
TGI (DU-145 prostate): 5.85 µM
GI50 (HS 578T breast): 9.54 µM
TGI (HS 578T breast): 32.9 µM
GI50 (MCF7 breast): 1.33 µM
TGI (MCF7 breast): > 10.5 µM
GI50 (MDA-MB-231 breast): 1.09 µM
TGI (MDA-MB-231 breast): 4.25 µM
GI50 (MDA-MB-435): 9.34 µM
TGI (MDA-MB-435): 22.9 µM

CC1=C(C)C(=O)c2c(c(C(=O)c3ccccc3)c3nc4ccccc4n3c2C)C1=O
GI50 (DU-145 prostate): 63.5 µM
TGI (DU-145 prostate): > 100 µM
GI50 (HS 578T breast): 35.4 µM
TGI (HS 578T breast): > 100 µM
GI50 (MCF7 breast): 70.1 µM
TGI (MCF7 breast): > 100 µM
GI50 (MDA-MB-231 breast): 17.7 µM
TGI (MDA-MB-231 breast): 46 µM
GI50 (MDA-MB-435): > 100 µM
TGI (MDA-MB-435): > 100 µM

CCCc1c2c([nH]c(=O)c1C)C(=O)c1[nH]c(=O)c(C)c(CCC)c1C2=O
TGI (DMS 114 small cell lung): 16.4 µM

Cn1ccnc1C(=O)/C=C/c1ccc(CC(=O)Nc2ccc(Cl)cc2)cc1
GI50 (DU-145 prostate): 1.42 µM
TGI (DU-145 prostate): > 25 µM
GI50 (HS 578T breast): 15.7 µM
TGI (HS 578T breast): > 25 µM
GI50 (MCF7 breast): 0.891 µM
TGI (MCF7 breast): > 25 µM
GI50 (MDA-MB-231 breast): 5.23 µM
TGI (MDA-MB-231 breast): > 25 µM
GI50 (MDA-MB-435): 9.16 µM
TGI (MDA-MB-435): > 25 µM

O=C(Nc1ccc(Cl)c([N+](=O)[O-])c1)Nc1nc2ccccc2s1
GI50 (DU-145 prostate): 4.22 µM
TGI (DU-145 prostate): 14.6 µM
GI50 (HS 578T breast): 2.85 µM
TGI (HS 578T breast): 12.3 µM
GI50 (MCF7 breast): 3.02 µM
TGI (MCF7 breast): 15.5 µM
GI50 (MDA-MB-231 breast): 3.5 µM
TGI (MDA-MB-231 breast): 12.1 µM
GI50 (MDA-MB-435): 2.73 µM
TGI (MDA-MB-435): 8.15 µM

Cc1ccc(NC(c2ccccc2)c2ccc3cccnc3c2O)cc1 (stereo not drawn)
TGI (DU-145 prostate): 23.4 µM
TGI (HS 578T breast): 61.3 µM
TGI (MCF7 breast): 16.2 µM
TGI (MDA-MB-231 breast): 13.5 µM
TGI (MDA-MB-435): 19.3 µM
TGI (MDA-N): 17.7 µM

CCNC(=O)C[C@@H]1N=C(c2ccc(Cl)cc2)c2cc(OC)ccc2-n2c(C)nnc21
GI50 (DU-145 prostate): > 100 µM
TGI (DU-145 prostate): > 100 µM
GI50 (HS 578T breast): 0.796 µM
TGI (HS 578T breast): > 41.5 µM
GI50 (MCF7 breast): 0.532 µM
TGI (MCF7 breast): > 100 µM
GI50 (MDA-MB-231 breast): 2.76 µM
TGI (MDA-MB-231 breast): > 100 µM
GI50 (MDA-MB-435): 1.75 µM
TGI (MDA-MB-435): > 100 µM

O=C(Nc1ccc(S(=O)(=O)Nc2nccs2)cc1)c1cccnc1Nc1cccc(Cl)c1
GI50 (DU-145 prostate): 15.2 µM
TGI (DU-145 prostate): 30.6 µM
GI50 (HS 578T breast): 19.5 µM
TGI (HS 578T breast): 67.5 µM
GI50 (MCF7 breast): 12.2 µM
TGI (MCF7 breast): 32.5 µM
GI50 (MDA-MB-231 breast): 5.73 µM
TGI (MDA-MB-231 breast): 21.4 µM
GI50 (MDA-MB-435): 14.3 µM
TGI (MDA-MB-435): 33.4 µM

COc1ccc(CN2C(=O)/C(=C\c3cc(OC)c(OC)c(OC)c3)c3cc(OC)ccc32)cc1
GI50 (DU-145 prostate): 2.96 µM
TGI (DU-145 prostate): 7.64 µM
GI50 (HS 578T breast): 2.4 µM
TGI (HS 578T breast): 8.72 µM
GI50 (MCF7 breast): 2.91 µM
TGI (MCF7 breast): 11.8 µM
GI50 (MDA-MB-231 breast): 2.89 µM
TGI (MDA-MB-231 breast): > 100 µM
GI50 (MDA-MB-435): 2.88 µM
TGI (MDA-MB-435): 8.88 µM
